Experimental data as given in PMC8199067, “Urolithin and Reduced Urolithin Derivatives as Potent Inhibitors of Tyrosinase and Melanogenesis: Importance of the 4-Substituted Resorcinol Moiety” (International Journal of Molecular Sciences, 2021).
Values joined by “and” are separate entries in the source; they are usually repeats but may differ in a detail not shown here. Equal values may be shown once. “Also recorded” adds a separate entry of the source. Read-outs that look alike come from different tables or passages of the source.

What was measured:
mushroom tyrosinase [1] = biological target: T1, mushroom tyrosinase (Agaricus bisporus, UniProt C7FF04); experiment: Mushroom tyrosinase inhibitory assay (L-tyrosine substrate); type: biochemical; conditions: for Tyrosinase Inhibition (%) / inhibition at 50 µM: 50 μM, L-tyrosine as substrate, mean ± SEM, NI means no inhibition
Protocol: The experiment was repeated three times. Mushroom tyrosinase inhibitions % were calculated using:% Inhibition = [1 − (A/B)] × 100(1) where A is the absorbance of the test compound and B is the absorbance of the blank.
Log-linear curves were plotted, and their equations were determined.
Target sequence in this assay (C7FF04 1-392 limits assumed): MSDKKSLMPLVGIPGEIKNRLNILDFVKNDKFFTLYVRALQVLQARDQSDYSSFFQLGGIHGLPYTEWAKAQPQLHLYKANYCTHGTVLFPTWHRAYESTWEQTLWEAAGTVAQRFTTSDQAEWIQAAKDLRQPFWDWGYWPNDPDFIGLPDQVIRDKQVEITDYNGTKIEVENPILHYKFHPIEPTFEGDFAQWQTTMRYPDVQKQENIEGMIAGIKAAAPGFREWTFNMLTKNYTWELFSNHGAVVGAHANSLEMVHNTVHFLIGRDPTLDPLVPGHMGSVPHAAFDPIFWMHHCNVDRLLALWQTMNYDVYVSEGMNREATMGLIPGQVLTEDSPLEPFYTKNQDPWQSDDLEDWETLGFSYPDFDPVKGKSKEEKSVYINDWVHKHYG

B16F10 melanoma cells [2] = experiment: Melanin content assay in α-MSH plus IBMX-stimulated B16F10 melanoma cells; type: cell-based, murine; conditions: 48 h
Protocol: Melanin contents in B16F10 cells were assessed by measuring optical densities spectrophotometrically. […] After washing cells with PBS two or three times, they were incubated for 1 h in 100 µL of 1N NaOH solution at 60 °C. […] All experiments were independently repeated three times.

mushroom tyrosinase [3] = biological target: T1, mushroom tyrosinase; experiment: Kinetic analysis of mushroom tyrosinase inhibition, Lineweaver–Burk plots; type: biochemical
Protocol: Briefly, 170 μL of a mixture of an aqueous solution of L-[…].0, 2.0, 4.0, or 8.0 mM and 50 mM of potassium phosphate (pH 6.5) was added to a 96-well plate. […] Lineweaver-Burk plots were used to determine Vmax (maximal reaction rates) and KM (Michaelis-Menten constants) of mushroom tyrosinase activities.
Target sequence in this assay (C7FF04 1-392): as the sequence (C7FF04 1-392 limits assumed) above

B16F10 melanoma cells [4] = experiment: EZ-cytox cell viability assay; type: cell-based, murine; conditions: 1–20 µM, 24 h
Protocol: EZ-cytox assays were performed to examine whether these compounds are cytotoxic.
B16F10 murine melanoma cells were purchased from the American Type Culture Collection (ATCC, Manassas, VA, USA). Cells were cultured in Dulbecco’s modified Eagle’s medium (10% fetal bovine serum (FBS), and 1% streptomycin) obtained from Gibco/Thermo Fisher Scientific (Carlsbad, CA, USA) at 37 °C in a 5% CO2 environment. These cultured cells were used for cell viability, melanin content, and cellular tyrosinase inhibitory assays.
EZ-cytox assays were performed on 1c, 1h, and 2a, according to previously described. B16F10 cells were seeded in a 96-well plate at a density of 5 × 10^4 cells/well and incubated at 37 °C in a humidified 5% CO2 atmosphere overnight. Cells were then treated with different concentrations of 1c, 1h, or 2a (0, 1, 2, 5, 10, or 20 µM) and incubated for 24 h under the same conditions. EZ-cytox solution (10 µL) was then added and the plate was incubated for 3 h at 37 °C in a humidified 5% CO2 atmosphere. Optical densities of wells were measured at 450 nm using an ELISA reader. All experiments were independently repeated three times.

[5] = biological target: T2, tyrosinase in B16F10 melanoma cells (Mus musculus, UniProt P11344); experiment: Cellular tyrosinase activity in α-MSH plus IBMX-stimulated B16F10 melanoma cells; conditions: 48 h
T2 sequence (P11344 19-533): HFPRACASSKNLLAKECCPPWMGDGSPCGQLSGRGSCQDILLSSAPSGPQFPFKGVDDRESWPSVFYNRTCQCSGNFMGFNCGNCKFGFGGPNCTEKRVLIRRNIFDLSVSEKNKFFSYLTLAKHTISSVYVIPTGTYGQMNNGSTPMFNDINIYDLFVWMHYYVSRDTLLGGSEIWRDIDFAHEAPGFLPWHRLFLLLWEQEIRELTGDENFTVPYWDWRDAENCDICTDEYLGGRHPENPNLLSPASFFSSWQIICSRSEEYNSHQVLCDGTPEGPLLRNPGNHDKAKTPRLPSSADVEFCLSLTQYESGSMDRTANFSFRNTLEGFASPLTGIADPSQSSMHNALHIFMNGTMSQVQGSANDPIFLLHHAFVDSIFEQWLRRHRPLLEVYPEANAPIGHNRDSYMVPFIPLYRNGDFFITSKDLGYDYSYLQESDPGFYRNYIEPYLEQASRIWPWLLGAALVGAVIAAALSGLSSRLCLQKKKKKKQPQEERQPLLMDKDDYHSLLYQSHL
Protocol: Cells were washed with PBS two or three times, lysed with a 100 μL of buffer (90 μL of PBS (50 mM), 5 μL of PMSF (0.1 mM), and 5 μL of 1% Triton X-100), frozen at −80 °C for 30 min, and centrifuged at 12,000 rpm for 30 min at 4 °C. Lysate supernatants (80 µL) were mixed with 20 µL of L-dopa (2 mg/mL) in a 96-well plate and incubated at 37 °C for 15 min. […] All the experiments were independently repeated three times.

In the case of `OCc1ccccc1-c1ccc(O)cc1O` [Compound 2a, 2′-(Hydroxymethyl)-[1,1′-biphenyl]-2,4-diol], the “Inhibition (%), single determinations” value (mushroom tyrosinase [1]; 1.56 μM) is reported as 0.27% and 0.72% and 1.06%, the inhibition at 1.56 µM (mushroom tyrosinase [1]; 1.56 μM, read-out: Average of Inhibition (%)) is reported as 0.68 ± 0.23% and the inhibition at 3.13 µM (mushroom tyrosinase [1]; 3.13 μM, read-out: Average of Inhibition (%)) is reported as 15.1 ± 6.53%. The “Inhibition (%), single determinations” value (mushroom tyrosinase [1]; 6.25 μM) was 31.66% and 31.22%, the inhibition at 6.25 µM (mushroom tyrosinase [1]; 6.25 μM, read-out: Average of Inhibition (%)) was 31.71 ± 0.3% and the inhibition at 6.25 µM (mushroom tyrosinase [1]; 6.25 μM, read-out: Inhibition (%), single determinations) was 32.2%. The “Inhibition (%), single determinations” value (mushroom tyrosinase [1]; 12.50 μM, 12.5 µM) was 50.39% and 54.31%, the inhibition at 12.5 µM (mushroom tyrosinase [1]; 12.50 μM, read-out: Average of Inhibition (%)) was 53.5 ± 1.62% and the inhibition at 12.5 µM (mushroom tyrosinase [1]; 12.50 μM, read-out: Inhibition (%), single determinations) was 55.8%. The “Inhibition (%), single determinations” value (mushroom tyrosinase [1]; 25.00 μM) was 68.71% and 69.37%, the inhibition at 25 µM (mushroom tyrosinase [1]; 25.00 μM, read-out: Average of Inhibition (%)) was 69.3 ± 0.32% and the inhibition at 25 µM (mushroom tyrosinase [1]; 25.00 μM, read-out: Inhibition (%), single determinations) was 69.8%. The “Tyrosinase Inhibition (%)” value (mushroom tyrosinase [1]) was 75.92 ± 2.19%, the inhibition at 50 µM (mushroom tyrosinase [1]) was 76% and the IC50 (mushroom tyrosinase [1]; mushroom tyrosinase, L-tyrosine, read-out: IC50) was 15.7 ± 0.4 µM. The Melanin content (B16F10 melanoma cells [2]; 5 µM, kojic acid 20 µM as comparator) was “more potently than kojic acid”, the Melanin content (B16F10 melanoma cells [2]; 20 μM, kojic acid 20 µM as comparator) was “more so than kojic acid” and the Melanin content (B16F10 melanoma cells [2]; 5, 10, 20 μM) was “more strongly than KA; also recorded: reduced melanin levels significantly and concentration-dependently; also recorded: effectively and dose-dependently”. For the same compound, the “Mode of tyrosinase inhibition” value (mushroom tyrosinase [3]; Lineweaver–Burk analysis, L-tyrosine as substrate) was “competitive inhibitors”, the “Vmax” value (mushroom tyrosinase [3]; inhibitor 10 μM, L-tyrosine 1.0–8.0 mM) was 0.029 mM/min and the “Vmax” value (mushroom tyrosinase [3]; inhibitor 20 μM, L-tyrosine 1.0–8.0 mM) was 0.029 mM/min. For the same compound, the “Vmax” value (mushroom tyrosinase [3]; inhibitor 40 μM, L-tyrosine 1.0–8.0 mM) was 0.029 mM/min, the Vmax (mushroom tyrosinase [3]; not dependent on inhibitor concentration) was 0.029 mM/min and the Cytotoxic effect (B16F10 melanoma cells [4]) was “No significant cytotoxic effect; also recorded: not cytotoxic”. The Cellular tyrosinase activity ([5]; 10 μM, α-MSH plus IBMX, kojic acid 20 μM as comparator) was “greater at 10 μM than kojic acid at 20 μM”, the Cellular tyrosinase activity ([5]; 20 μM, α-MSH plus IBMX, kojic acid 20 µM as comparator) was “much higher than that of kojic acid; also recorded: reduced tyrosinase activity to the untreated control levels” and the Cellular tyrosinase activity ([5]; 5, 10, 20 μM, α-MSH (1 μM) plus IBMX (200 μM)) was “more strongly than KA; also recorded: decreased significantly and concentration-dependently; also recorded: effectively and dose-dependently”.

`COc1ccc(-c2ccccc2CO)c(O)c1` [Compound 2b, 2′-(Hydroxymethyl)-4-methoxy-[1,1′-biphenyl]-2-ol] was tested, and the inhibition at 50 µM (mushroom tyrosinase [1]) was less than 0%.

In the case of `OCc1ccccc1-c1c(O)cc(O)cc1O` [Compound 2c, 2′-(Hydroxymethyl)-[1,1′-biphenyl]-2,4,6-triol], the “Tyrosinase Inhibition (%)” value (mushroom tyrosinase [1]) is reported as 19.78 ± 15.84% and the inhibition at 50 µM (mushroom tyrosinase [1]) is reported as 20%.

Compound `COc1cc(O)c(-c2ccccc2CO)c(OC)c1` [Compound 2d, 2′-(Hydroxymethyl)-4,6-dimethoxy-[1,1′-biphenyl]-2-ol] has an inhibition at 50 µM (mushroom tyrosinase [1]) of less than 0%.

For `OCc1cc(O)ccc1-c1ccc(O)cc1O` [Compound 2e, 2′-(Hydroxymethyl)-[1,1′-biphenyl]-2,4,4′-triol], the inhibition at 50 µM (mushroom tyrosinase [1]) was less than 0%.

`COc1ccc(-c2ccc(O)cc2O)c(CO)c1` [Compound 2f, 2′-(Hydroxymethyl)-4′-methoxy-[1,1′-biphenyl]-2,4-diol] showed an inhibition at 50 µM (mushroom tyrosinase [1]) of 47.9 ± 12.8%.

`COc1ccc(-c2ccc(OC)cc2CO)c(O)c1` [Compound 2g, 2′-(Hydroxymethyl)-4,4′-dimethoxy-[1,1′-biphenyl]-2-ol] was tested, and the inhibition at 50 µM (mushroom tyrosinase [1]) was less than 0%.

With `COc1ccc(-c2c(O)cc(O)cc2O)c(CO)c1` [Compound 2h, 2′-(Hydroxymethyl)-4′-methoxy-[1,1′-biphenyl]-2,4,6-triol] the “Tyrosinase Inhibition (%)” value (mushroom tyrosinase [1]) was 26.30 ± 0.75% and the inhibition at 50 µM (mushroom tyrosinase [1]) was 26%.

`COc1ccc(-c2c(O)cc(OC)cc2OC)c(CO)c1` [Compound 2i, 2′-(Hydroxymethyl)-4,4′,6-trimethoxy-[1,1′-biphenyl]-2-ol] showed an inhibition at 50 µM (mushroom tyrosinase [1]) of less than 0%.
